Measurements reported in article PMC10038264, “A new family of glutamate-gated chloride channels in parasitic sea louse Caligus rogercresseyi: A subunit refractory to activation by ivermectin is dominant in heteromeric assemblies” (PLOS Pathogens, 2023).
Like-named read-outs stand apart in the source and are kept apart here.

What was measured:
CrGluCl-B = test: Two-electrode voltage-clamp of Xenopus oocytes expressing CrGluCl-B; type: cell-based, Caligus rogercresseyi; details: CrGluCl-B
Protocol: (§1) Adult female Xenopus laevis frogs were anaesthetized by immersion in a1g/L solution tricaine (Ethyl 3-aminobenzoate methanesulfonate, Sigma) buffered to pH 7 with NaHCO3. Surgery was performed 30–40 min later, once the frog was completely anaesthetized judging by loss of reflexes. Ovarian lobes were removed through 1 cm abdominal incision and then kept at 16°C in Barth’s modified solution containing (in mM): 88 NaCl, 1 KCl, 0.4 CaCl2, 0.3 Ca (NO3)2, 0.8 MgSO4, 2.4 NaHCO3, 5 Hepes, 2.5 sodium pyruvate, 100 μg/ml gentamicin sulfate, 100 U/ml penicillin, 100 μg/ml streptomycin, 250 μg/ml amphotericin B, 0.22μm filtered and adjusted to pH 7.5 with Tris-Base. Osmolarity was brought to 220 mOsm with saccharose. The oocytes were manually defolliculated on the same day of extraction and the following day 20 ng cRNA in nuclease-free water was injected into stage V-VI oocytes using a FemtoJet microinjector (Eppendorf). Finally, the injected oocytes were stored in 96 well plates containing Barth’s modified solution and kept at 16°C until experiment day.
(§2) Current measurements at controlled membrane potentials (voltage-clamp experiments) were performed using two intracellular microelectrodes in defolliculated Xenopus oocytes previously microinjected with 20 ng of cRNA. Voltage-clamp recording was performed at room temperature using a TURBO TEC-10CX amplifier (npi electronic GmbH, Tamm, Germany) and PClamp 10.6 software (Axon Instruments, USA), 1 to 4 days after oocyte injection. The oocytes were recorded in a chamber (Model RC-1Z, Warner Instrumenst, USA) under continuous superfusion. […] Reference was an Ag-AgCl electrode connected to the bath via a 3 M KCl in 3% agar bridge. Currents were recorded continuously during the experiments without interruptions for solution changes. Oocytes were held at -30 mV and a voltage protocol consisting of a voltage drop to -100 mV for 25ms followed by a 360 ms ramp from -100 mV to 60mV applied with a period of 565 ms was continuously given. The signal filtered at 1 kHz was acquired with a Digidata 1440A Analog-to-Digital Converter and analyzed with Axon pClamp 10.6 software. The solution that bathed the oocytes during the electrophysiological recordings had the following composition (mM): 115 NaCl, 2 KCl, 1.8 CaCl2, 1 MgCl2, 10 HEPES pH 7.5 obtained with NaOH. For the low chloride solution, all the NaCl was replaced with the gluconate salt of Na. This decreases chloride concentration from 122.6 to 7.6 mM while increasing that of gluconate from 0 to 115 mM. The stock solutions of the drugs in dimethyl sulfoxide (DMSO) were: 10 mM emamectin, 10 mM ivermectin, 100 mM picrotoxin. These were diluted in bath solution to obtain final concentrations.
(§3) The currents were normalized according to the extrapolated maximum current delivered by the Hill adjustment. In this way, the concentration that generates 50% of the maximum effect (EC50) and the Hill coefficient (nH) for each situation were obtained.

CrGluCl-A [1] = biological target: T1, CrGluCl-A (Caligus rogercresseyi, UniProt A0A1W6LZ70); details: cited from earlier work
CrGluCl-A [2] = biological target: T1, CrGluCl-A; test: Two-electrode voltage-clamp of Xenopus oocytes expressing CrGluCl-A; type: cell-based; details: 100 μM PTX, CrGluCl-A
Protocol: as §1
Current measurements at controlled membrane potentials (voltage-clamp experiments) were performed using two intracellular microelectrodes in defolliculated Xenopus oocytes previously microinjected with 20 ng of cRNA. Voltage-clamp recording was performed at room temperature using a TURBO TEC-10CX amplifier (npi electronic GmbH, Tamm, Germany) and PClamp 10.6 software (Axon Instruments, USA), 1 to 4 days after oocyte injection. The oocytes were recorded in a chamber (Model RC-1Z, Warner Instrumenst, USA) under continuous superfusion. […] Reference was an Ag-AgCl electrode connected to the bath via a 3 M KCl in 3% agar bridge. Currents were recorded continuously during the experiments without interruptions for solution changes. […] The signal filtered at 1 kHz was acquired with a Digidata 1440A Analog-to-Digital Converter and analyzed with Axon pClamp 10.6 software. […]

CrGluCl-C = type: cell-based, Caligus rogercresseyi
Protocol: as §1, §2, §3

CrGluCl-D = type: cell-based, Caligus rogercresseyi; details: CrGluCl-D, read-out: IC50 PTX inhibition of spontaneous current
Protocol: as §1, §2, §3

T1 sequence (A0A1W6LZ70 entry or part of it): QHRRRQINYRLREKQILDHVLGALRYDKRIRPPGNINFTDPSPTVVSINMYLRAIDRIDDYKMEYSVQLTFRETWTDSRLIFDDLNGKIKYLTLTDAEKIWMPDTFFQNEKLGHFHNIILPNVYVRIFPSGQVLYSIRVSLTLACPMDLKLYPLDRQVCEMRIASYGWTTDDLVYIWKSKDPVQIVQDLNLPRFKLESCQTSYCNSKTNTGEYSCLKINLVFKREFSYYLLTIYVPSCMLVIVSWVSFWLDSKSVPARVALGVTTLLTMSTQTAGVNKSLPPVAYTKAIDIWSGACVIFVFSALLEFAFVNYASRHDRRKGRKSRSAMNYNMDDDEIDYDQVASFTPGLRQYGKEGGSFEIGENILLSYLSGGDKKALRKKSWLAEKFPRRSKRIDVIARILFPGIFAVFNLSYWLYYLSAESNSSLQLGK

Row | Substance | antagonism of glutamate response (CrGluCl-B; S3 Fig) | EC50 (CrGluCl-A [1]; read-out: EC50 Ivermectin / avermectin irreversible activation) [µM] | inhibition by PTX (CrGluCl-A [2]) [%] | inhibition by PTX of glutamate-elicited current (CrGluCl-B; 100 μM PTX, 1 mM glutamate) [%] | inhibition by PTX (CrGluCl-C; 100 μM PTX, CrGluCl-C) [%] | nH (PTX inhibition) (CrGluCl-C; CrGluCl-C current elicited by 1 μM ivermectin) | IC50 (CrGluCl-C; CrGluCl-C current elicited by 1 μM ivermectin, read-out: IC50 PTX inhibition of ivermectin-induced current) [µM] | IC50 (CrGluCl-D; after 1 μM ivermectin (~2 min)) [µM] | IC50 (CrGluCl-D; before ivermectin treatment) [µM] | IC50 (CrGluCl-A [1]) [µM]
1 | emamectin | antagonistic effect | ~0.2 |  |  |  |  |  |  |  | 
2 | picrotoxin [PTX] |  |  | 78 ± 2 | 76 ± 9 | 23 ± 10 | -1.2±0.22 | 275 ± 96 | 221 ± 100 | 16 ± 8.8 | 3.2
